The nature of data set [1]: Moisture sorption isotherm (hygroscopicity). The format is physicochemical. The conditions noted are these: FIG. 10.
Data set [2] in a line: Solution mediated transformation of aripiprazole forms (thermodynamic stability). The format is physicochemical. The conditions noted are these: at temperatures at and below about 60° C.

From patent US8008490B2, “Polymorphic forms of aripiprazole and method” (Sandoz AG, priority 2005, dated 2011) come the findings set out here.

Take `O=C1CCc2ccc(OCCCCN3CCN(c4cccc(Cl)c4Cl)CC3)cc2N1` [Form X of aripiprazole, 7-[4-[4-(2,3-dichlorophenyl)-1-piperazinyl]butoxy]-3,4-dihydro-2(1H)-quinolinone]: in data set [1], the “conversion into a hydrated form of aripiprazole” value is on record as “does not substantially convert into a hydrated form of aripiprazole” and the hygroscopicity entry is on record as “low hygroscopicity”. The “thermodynamic stability (Gibbs free energy relative to other forms of aripiprazole)” value in data set [2] is given as “lowest Gibbs free energy”.
